From US20250161476A1 (REGENERON PHARMACEUTICALS, INC., priority 2020, published 2025)
Where a SMILES comes first, the peptide text is derived from it. [ ]: non-standard residue; d: D form. The star is where a group is joined. Bip(2'-Et,4'-O(CH2)4NH2) = CCc1cc(OCCCCN)ccc1-c1ccc(C[C@H](N)C(=O)O)cc1; Malonyl(2,2-Me2,histaminyl) = CC(C)(C(=O)NCCc1cnc[nH]1)C(=O)*; Nva(5-(3,5-Me2Ph)) = Cc1cc(C)cc(CCC[C@H](N)C(=O)O)c1; Ala(1H-tetrazol-5-yl) = N[C@@H](Cc1nnn[nH]1)C(=O)O; X5 = C[C@]1(C(=O)*)CCN(CCc2cnc[nH]2)C1=O; αMePhe(2-F) = C[C@](N)(Cc1ccccc1F)C(=O)O; Desaminohistidyl = O=C(CCc1c[nH]cn1)*; X3 = CC(C)(C(=O)*)c1ccn[nH]1; X1 = O=C(CCCCCc1cnc[nH]1)*; X2 = CC(C)(C(N)=O)C(=O)*; X4 = CC(C)(C(=O)O)C(=O)*; NHPh = c1ccc(N*)cc1

Legend:
[1] = Plasma stability of payloads and linker-payloads, human plasma; type: in vitro ADME; details: for half-life at 2 µM: human, pooled plasma, pH 7.4, payload properties table, species not given, read-out: Plasma stability t½ (converted)
Protocol: The plasma stability of payloads and linker payloads of the disclosure were measured. For the assay, pooled frozen plasma (human, mouse or monkey) was thawed in cold water or a 37° C. water bath prior to experiment. Plasma was centrifuged at 4000 rpm for 5 min if any clots were observed, they were subsequently removed. If required, the pH was adjusted to 7.4±0.1. For the preparation of compounds and positive controls, a 1 mM intermediate solution was prepared by diluting 10 μL of their stock solution with 90 μL DMSO; a 1 mM intermediate solution of the positive control (Propantheline) was prepared by diluting 10 μL of its stock solution with 90 μL ultrapure water. […] 98 μL of plasma was spiked with 2 μL of dosing solution (100 μM) to achieve the final concentration of 2 μM in duplicate. Samples were then incubated at 37° C. in a water bath. […] At each time point, 400 μL of stop solution (200 ng/mL tolbutamide plus 200 ng/mL labetalol in 50% ACN/MeOH) was added to precipitate protein and mixed thoroughly. Sample plates were then centrifuged at 4,000 rpm for 10 min. An aliquot of supernatant (50 μL) was transferred from each well and mixed with 100 μL ultra-pure water. The samples were then shaken at 800 rpm for approximately 10 min before submitting for LC-MS/MS analysis.

human GLP1R = human GLP1R (Homo sapiens (Human), UniProt P43220); experiment: cAMP responsive luciferase reporter assay, HEK293/CRE-Luc/hGLP1R cells; type: cell-based; details: for HEK293/CRE-LUC/hGLP1R S/N: highest RLU / RLU of untreated wells; for HEK293/CRE-LUC/hGLP1R Relative Potency (% P8 EC50) / HEK293/CRE-LUC/hGLP1R Relative Signal:Noise (% P8): relative to P8 of the same experiment
Chain of human GLP1R (P43220 24-463): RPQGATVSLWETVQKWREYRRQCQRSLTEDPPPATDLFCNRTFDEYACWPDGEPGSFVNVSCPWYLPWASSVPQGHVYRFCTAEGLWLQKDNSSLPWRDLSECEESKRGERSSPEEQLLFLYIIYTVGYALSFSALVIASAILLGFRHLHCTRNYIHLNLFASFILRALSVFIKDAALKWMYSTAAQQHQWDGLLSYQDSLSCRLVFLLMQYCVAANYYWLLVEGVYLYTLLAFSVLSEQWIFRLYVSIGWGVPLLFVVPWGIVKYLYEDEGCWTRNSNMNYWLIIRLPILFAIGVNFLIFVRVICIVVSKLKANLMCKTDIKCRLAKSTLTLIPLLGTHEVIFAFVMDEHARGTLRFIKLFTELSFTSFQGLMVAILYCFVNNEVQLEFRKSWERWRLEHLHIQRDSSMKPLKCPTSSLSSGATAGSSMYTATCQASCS
Description: (§1) To test the activity of GLP1R agonist payloads, GLP1R agonist linker-payloads (LPs), and anti-GLP1R antibody tethered drug conjugates (ATDCs) of the disclosure, a cell-based cAMP responsive luciferase reporter assay was developed. To generate the assay cell line, the firefly luciferase gene was placed under the control of a cAMP response element (CRE) located upstream of a minimal promoter and transfected into HEK293 cells and referred to herein as HEK293/CRE-Luc cells.
(§2) Three-fold serial dilutions of free payloads or LPs were prepared in 100% DMSO, transferred to fresh assay media, and added to the cells at a final constant DMSO concentration of 0.2%. The last well in the plate served as a blank control containing only the assay media and 0.2% DMSO (untreated well) and was plotted as a continuation of the 3-fold serial dilution. Four to six hours later, luciferase activity was determined after the addition of One-Glo™ reagent (Promega, Cat #E6130) to each well. Relative light units (RLUs) were measured on an Envision luminometer (PerkinElmer) and EC50 values were determined using a four-parameter logistic equation over a 12-point dose response curve (GraphPad Prism). The signal to noise (S/N) was determined by taking the ratio of the highest RLU on the dose response curve to the RLU in the untreated wells.
GLP1R agonist linker payloads were conjugated to anti-hGLP1R antibodies via N-terminal heavy or light chain Q tags. Several resulting anti-GLP1R antibody tethered drug conjugates (ATDCs) were tested for activity in the HEK293/CRE-Luc/hGLP1R reporter assay as described above for the free GLP1R payload and linker-payload agonists.

HEK293/CRE-Luc cells = experiment: cAMP responsive luciferase reporter assay, HEK293/CRE-Luc cells (no hGLP1R expression); type: cell-based, human
Description: as §1, §2

SMILES | Human plasma stability assay T½ ([1]; tested for 1 day (A)) [h] | half-life at 2 µM [1] [h] | HEK293/CRE-LUC/hGLP1R S/N (human GLP1R) | HEK293/CRE-LUC/hGLP1R Relative Potency (% P8 EC50) (human GLP1R) [%] | HEK293/CRE-LUC/hGLP1R Relative Signal:Noise (% P8) (human GLP1R) [%] | EC50 (HEK293/CRE-Luc cells) [nM] | HEK293/CRE-LUC S/N (HEK293/CRE-Luc cells) | Human plasma stability assay T½ ([1]; tested for 2 hrs (B)) [h] | Human plasma stability assay T½ ([1]; tested for 3 days (C)) [h]
CCc1cc(OCCCCN)ccc1-c1ccc(C[C@H](NC(=O)[C@H](CC(=O)O)NC(=O)[C@H](CO)NC(=O)[C@@H](NC(=O)[C@](C)(Cc2ccccc2F)NC(=O)[C@@H](NC(=O)CNC(=O)[C@H](Cc2nn[nH]n2)NC(=O)[C@H](C)NC(=O)[C@H](Cc2c[nH]cn2)NC(=O)[C@@H](N)CCC(N)=O)[C@@H](C)O)[C@@H](C)O)C(=O)N[C@@H](CCCc2cc(C)cc(C)c2)C(N)=O)cc1 [P13] (H-QHA[Ala(1H-tetrazol-5-yl)]GT[αMePhe(2-F)]TSD[Bip(2'-Et,4'-O(CH2)4NH2)][Nva(5-(3,5-Me2Ph))]-NH2) | 16.9 | 16.9 | 69.5 | 1.5 | 105.6 | > 200 | 1.2 | – | –
CCc1cc(OCCCCN)ccc1-c1ccc(C[C@H](NC(=O)[C@H](CC(=O)O)NC(=O)[C@H](CO)NC(=O)[C@@H](NC(=O)[C@](C)(Cc2ccccc2F)NC(=O)[C@@H](NC(=O)CNC(=O)[C@H](Cc2nn[nH]n2)NC(=O)C(C)(C)C(=O)NCCc2cnc[nH]2)[C@@H](C)O)[C@@H](C)O)C(=O)N[C@@H](CCCc2cc(C)cc(C)c2)C(=O)Nc2ccccc2)cc1 [P23] ({Malonyl(2,2-Me2,histaminyl)}-[Ala(1H-tetrazol-5-yl)]GT[αMePhe(2-F)]TSD[Bip(2'-Et,4'-O(CH2)4NH2)][Nva(5-(3,5-Me2Ph))]-NHPh) | – | – | 57.1 | 103.0 | 86.9 | > 200 | 1.6 | 10.74 | –
CCc1cc(OCCCCN)ccc1-c1ccc(C[C@H](NC(=O)[C@H](CC(=O)O)NC(=O)[C@H](CO)NC(=O)[C@@H](NC(=O)[C@](C)(Cc2ccccc2F)NC(=O)[C@@H](NC(=O)CNC(=O)[C@H](CCC(N)=O)NC(=O)C(C)(C)C(=O)NCCc2cnc[nH]2)[C@@H](C)O)[C@@H](C)O)C(=O)N[C@@H](CCCc2cc(C)cc(C)c2)C(N)=O)cc1 [P21] | – | > 57.8 | 58.8 | 0.7 | 89.5 | > 200 | 1.3 | – | >173.4
CCc1cc(OCCCCN)ccc1-c1ccc(C[C@H](NC(=O)[C@H](CC(=O)O)NC(=O)[C@H](CO)NC(=O)[C@@H](NC(=O)[C@](C)(Cc2ccccc2F)NC(=O)[C@@H](NC(=O)CNC(=O)[C@H](Cc2nn[nH]n2)NC(=O)C(C)(C)C(=O)O)[C@@H](C)O)[C@@H](C)O)C(=O)N[C@@H](CCCc2cc(C)cc(C)c2)C(N)=O)cc1 [P3] (X4-[Ala(1H-tetrazol-5-yl)]GT[αMePhe(2-F)]TSD[Bip(2'-Et,4'-O(CH2)4NH2)][Nva(5-(3,5-Me2Ph))]-NH2) | >57.81 | > 57.8 | 46.3 | 0.3 | 70.3 | > 200 | 1.2 | – | –
CCc1cc(OCCCCN)ccc1-c1ccc(C[C@H](NC(=O)[C@H](CC(=O)O)NC(=O)[C@H](CO)NC(=O)[C@@H](NC(=O)[C@](C)(Cc2ccccc2F)NC(=O)[C@@H](NC(=O)CNC(=O)[C@H](Cc2nn[nH]n2)NC(=O)CCCCCc2cnc[nH]2)[C@@H](C)O)[C@@H](C)O)C(=O)N[C@@H](CCCc2cc(C)cc(C)c2)C(N)=O)cc1 [P11] (X1-[Ala(1H-tetrazol-5-yl)]GT[αMePhe(2-F)]TSD[Bip(2'-Et,4'-O(CH2)4NH2)][Nva(5-(3,5-Me2Ph))]-NH2) | >57.81 | > 57.8 | 54.8 | 0.8 | 83.4 | > 200 | 1.1 | – | –
CCc1cc(OCCCCN)ccc1-c1ccc(C[C@H](NC(=O)[C@H](CC(=O)O)NC(=O)[C@H](CO)NC(=O)[C@@H](NC(=O)[C@](C)(Cc2ccccc2F)NC(=O)[C@@H](NC(=O)CNC(=O)[C@H](Cc2nn[nH]n2)NC(=O)C(C)(C)c2ccn[nH]2)[C@@H](C)O)[C@@H](C)O)C(=O)N[C@@H](CCCc2cc(C)cc(C)c2)C(N)=O)cc1 [P6] (X3-[Ala(1H-tetrazol-5-yl)]GT[αMePhe(2-F)]TSD[Bip(2'-Et,4'-O(CH2)4NH2)][Nva(5-(3,5-Me2Ph))]-NH2) | >57.81 | > 57.8 | 60.7 | 0.9 | 92.3 | > 200 | 1.0 | – | –
CCc1cc(OCCCCN)ccc1-c1ccc(C[C@H](NC(=O)[C@H](CC(=O)O)NC(=O)[C@H](CO)NC(=O)[C@@H](NC(=O)[C@](C)(Cc2ccccc2F)NC(=O)[C@@H](NC(=O)CNC(=O)[C@H](Cc2nn[nH]n2)NC(=O)C(C)(C)C(N)=O)[C@@H](C)O)[C@@H](C)O)C(=O)N[C@@H](CCCc2cc(C)cc(C)c2)C(N)=O)cc1 [P4] (X2-[Ala(1H-tetrazol-5-yl)]GT[αMePhe(2-F)]TSD[Bip(2'-Et,4'-O(CH2)4NH2)][Nva(5-(3,5-Me2Ph))]-NH2) | >57.81 | > 57.8 | 66.9 | 6.3 | 101.8 | > 200 | 1.6 | – | –
CCc1cc(OCCCCN)ccc1-c1ccc(C[C@H](NC(=O)[C@H](CC(=O)O)NC(=O)[C@H](CO)NC(=O)[C@@H](NC(=O)[C@](C)(Cc2ccccc2F)NC(=O)[C@@H](NC(=O)CNC(=O)[C@H](Cc2nn[nH]n2)NC(=O)CNC(=O)CCc2c[nH]cn2)[C@@H](C)O)[C@@H](C)O)C(=O)N[C@@H](CCCc2cc(C)cc(C)c2)C(N)=O)cc1 [P12] (Desaminohistidyl-G[Ala(1H-tetrazol-5-yl)]GT[αMePhe(2-F)]TSD[Bip(2'-Et,4'-O(CH2)4NH2)][Nva(5-(3,5-Me2Ph))]-NH2) | >57.81 | > 57.8 | 76.4 | 46.5 | 116.2 | > 200 | 1.2 | – | –
CCc1cc(OCCCCN)ccc1-c1ccc(C[C@H](NC(=O)[C@H](CC(=O)O)NC(=O)[C@H](CO)NC(=O)[C@@H](NC(=O)[C@](C)(Cc2ccccc2F)NC(=O)[C@@H](NC(=O)CNC(=O)[C@H](Cc2nn[nH]n2)NC(=O)[C@@]2(C)CCN(CCc3cnc[nH]3)C2=O)[C@@H](C)O)[C@@H](C)O)C(=O)N[C@@H](CCCc2cc(C)cc(C)c2)C(N)=O)cc1 [P15-R] (X5-[Ala(1H-tetrazol-5-yl)]GT[αMePhe(2-F)]TSD[Bip(2'-Et,4'-O(CH2)4NH2)][Nva(5-(3,5-Me2Ph))]-NH2) | – | – | 67.8 | 40.3 | 103.1 | > 200 | 1.1 | – | –
